Test results published in paper PMC5617480 (Oncotarget, 2017).

Key:
BEL-7402 xenograft = assay: In vivo tumor growth inhibition, BEL-7402 xenograft model; details: BEL-7402 model; for Average tumor weight (mean ± SD g) / Tumor volume (End) / Body weight (End) / RBW (%) (End): day 18; for inhibition in weight: p<0.05
Method: In vivo anticancer efficacy of chiral platinum(II) complex 6 was evaluated using BEL-7404 and BEL-7402 xenograft mouse models. BEL-7404 and BEL-7402 cells were injected into nude mice. The mice were randomized into the control group, complex 6-treated group, and the positive control group (n = 6/group). When the volume of tumor was about 80 mm^3, complex 6 was given at a high (8 mg/kg) and low (4 mg/kg) dosage daily for 18 days, 5-FU (20 mg/kg every two days) and Cisplatin (2 mg/kg every two days) were used as a positive control in the BEL-7404 and BEL-7402 xenograft model, respectively.
To evaluate the vivo anticancer efficacy of complex 6, BEL-7404 and BEL-7402 xenograft mouse models (BALB/c nude mice, female for BEL-7404 model, 17–20 g, 6–7 weeks old; male for BEL-7402 model, 18-21 g, 6–7 weeks old) were used. Furthermore, animal used, maximum tolerated dose (MTD) analysis, acute toxicity studies and antitumor activity toward BEL-7404 and BEL-7402 models in vivo of complex 6, was similar to Chen reported.
H21T (3.5 pmol; 5’-G [T AG ] -3’), primer TS (18 pmol; tumor tissue were cut into about 1.5 mm3 small pieces, and […]
5’-[…]-3’), KCl (63 mM), then transplanted into the right flank of nude mice. When EGTA (1 mM), MgCl (1.5 mM), Tween-20 (0.005%), the average tumors reach a volume of about 80 mm3, the […]
primer NT (7.5 pmol; 5’-[…]-3’), mice were randomized into 4 groups (n=6), received the […]
TSNT internal control (0.01 amol; 5’-[…] following treatments: (a) control, received saline solvent; […]
-3’), primer (b) complex 6 at doses of 8.0 mg/kg daily (dissolve in […]
Cxext (22.5 pmol; 5’-[…] saline, iv); (c) complex 6 at doses of 4.0 mg/kg daily; […]
[…]-3’), Taq DNA polymerase (2.5 U), and (d) in BEL-7404 model, 5-fluorouracil (5-Fu) as positive telomerase (100 ng). Complexes or/and distilled water control at 20 mg/kg per two days (dissolve in saline, iv); was added ([…]). PCR was performed in an Eppendorf in BEL-7402 model, cisplatin as positive control at 2 mg/ Master cycler equipped with a hot lid and incubated for kg per two days (dissolve in saline, iv).
30.0 min at 30 °C, followed by 92 °C 30 s, 52 °C 30 s, The tumor volumes and body weight was monitored and 72°C 30 s for 30.0 cycles. After amplification, 8.0 every 3 days, The tumor volumes were estimated by […] loading buffer (5×TBE buffer, 0.2% xylene cyanol, measuring the two dimensions of the tumors using caliper and 0.2% bromophenol blue ) were added to the reaction. and calculated by the formula 1 [1, 6, 14]:
An […] of aliquot was loaded onto a nondenaturing V = (length × width2)/2(1) acrylamide gel (19:1, 16%) in 1×TBE buffer and resolved at 200.0 V for 1.0 h. Gels were fixed and then stained with On day 18, the mice were sacrificed, and tumor AgNO3 [8–11]. tissue were dissected out and weighted, tumor growth inhibition rate calculated using formulas 2 and 3 [1, 6,
In order to verify whether complexes 4–6 can TGI (%) = (ΔVc − ΔVt)/ΔVc×100%(2) directly regulate c-myc promoter (Pu27) and the IR(%) = (Wc − Wt)/Wc×100%(3) expression of hTRET in BEL-7404 cells, consequently Where ΔVt = tumor volumefinal −tumor volumeinitial inhibiting the telomerase function, we constructed EGFP for compound treated group, ΔVc=tumor volumefinal − and c-myc gene vectors according to those illustrated tumor volumeinitial for vehicle control group; Wt and Wc in Chalfie, Chen and He previous work. The detailed mean the average tumor weight of complex-treated and procedures for the construct of gene (c-myc and EGFP vehicle controlled group respectively. genes) vectors, and the method of transfection assays REFERENCES have been reported by Chalfie, Chen and He [1, 6, 9, 12,

KM mice = assay: Acute toxicity studies, single dose; type: in vivo; details: for Death (%) on day 14 / No. of death mice, Five-fourteen day / No. of death mice, Four day / No. of death mice, One day / No. of death mice, Three day / No. of death mice, Two day / Total death: 10 animals
Method: We further evaluated the safety of chiral platinum(II) complex 6 by using KM mice via the tail vein injection with a single dose of complex 6 at 15, 12, 9.6 and 7.8 mg/kg, respectively. After 14 days, the mortality rate of mice was calculated (Supplementary Figure 31 and Supplementary Table 10). […] However, at higher doses (>7.8 mg/kg), death of mice occurred. Thus, the doses of 7.8 mg/kg of complex 6 were employed in the further in vivo experiment.

mice = assay: In vivo toxicity of multiple doses; details: monitored another week
Method: We then assessed the in vivo toxicity of multiple doses of complex 6. The mice was treated with complex 6 at 7.8 mg/kg daily or per two day by iv injection up to 7 days, and then monitored for another week.

[1] = Cisplatin 2.0 mg/kg per two days iv
[2] = single tail vein dose 7.8 mg/kg
[3] = single tail vein dose 9.6 mg/kg

In the case of `N.N.[Cl][Pt][Cl]` [cisplatin, reference compound], the “Tumor volume (start)” value (BEL-7402 xenograft; [1]) is reported as 78.6±37.7 mm3, the “Average tumor weight (mean ± SD g)” value (BEL-7402 xenograft; [1]) is reported as 0.38 ± 0.18 g and the “Tumor volume (End)” value (BEL-7402 xenograft; [1]) is reported as 329.9±155.2 mm3.
In the case of cis-[PtCl2(S-(–)-FOA)] [complex 6], the “Death (%) on day 14” value (KM mice; [2]) is reported as 0%, the “No. of death mice, Five-fourteen day” value (KM mice; [2]) is reported as 0 and the “No. of death mice, Four day” value (KM mice; [2]) is reported as 0. The “No. of death mice, One day” value (KM mice; [2]) was 0, the “No. of death mice, Three day” value (KM mice; [2]) was 0 and the “No. of death mice, Two day” value (KM mice; [2]) was 0. For the same compound, the Total death (KM mice; [2]) was 0, the acute toxicity finding (KM mice; single tail vein dose 7.8 mg/kg, 14 days) was “did not kill any animal or cause any abnormality” and the “Death (%) on day 14” value (KM mice; [3]) was 10%. The “No. of death mice, Five-fourteen day” value (KM mice; [3]) was 0, the “No. of death mice, Four day” value (KM mice; [3]) was 0 and the “No. of death mice, One day” value (KM mice; [3]) was 0. For the same compound, the “No. of death mice, Three day” value (KM mice; [3]) was 0, the “No. of death mice, Two day” value (KM mice; [3]) was 1 and the Total death (KM mice; [3]) was 1. The “Death (%) on day 14” value (KM mice; single tail vein dose 12 mg/kg) was 40%, the “No. of death mice, Five-fourteen day” value (KM mice; single tail vein dose 12 mg/kg) was 0 and the “No. of death mice, Four day” value (KM mice; single tail vein dose 12 mg/kg) was 0. For the same compound, the “No. of death mice, One day” value (KM mice; single tail vein dose 12 mg/kg) was 3, the “No. of death mice, Three day” value (KM mice; single tail vein dose 12 mg/kg) was 1 and the “No. of death mice, Two day” value (KM mice; single tail vein dose 12 mg/kg) was 1. For the same compound, the “Death (%) on day 14” value (KM mice; single tail vein dose 15 mg/kg) was 90%, the “No. of death mice, Five-fourteen day” value (KM mice; single tail vein dose 15 mg/kg) was 0 and the “No. of death mice, Four day” value (KM mice; single tail vein dose 15 mg/kg) was 0. The “No. of death mice, One day” value (KM mice; single tail vein dose 15 mg/kg) was 7, the “No. of death mice, Three day” value (KM mice; single tail vein dose 15 mg/kg) was 1 and the “No. of death mice, Two day” value (KM mice; single tail vein dose 15 mg/kg) was 1. The Total death (KM mice; single tail vein dose 15 mg/kg) was 9, the “safety of multiple doses” value (mice; 7.8 mg/kg daily iv up to 7 days) was “safe for mice” and the body weight change (mice; 7.8 mg/kg daily or per two day iv up to 7 days) was “Moderate body weight increase”. The inhibition in weight (BEL-7402 xenograft; 4 mg/kg daily for 18 days) was 32.9%, the inhibition in weight (BEL-7402 xenograft; 8 mg/kg daily for 18 days) was 47.1% and the “Body weight (start)” value (BEL-7402 xenograft; 6 4.0 mg/kg daily iv) was 19.1 ± 1.6 g. For the same compound, the “Tumor volume (start)” value (BEL-7402 xenograft; 6 4.0 mg/kg daily iv) was 78.7±58.4 mm3, the “Average tumor weight (mean ± SD g)” value (BEL-7402 xenograft; 6 4.0 mg/kg daily iv) was 0.84 ± 0.39 g and the “Body weight (End)” value (BEL-7402 xenograft; 6 4.0 mg/kg daily iv) was 22.3 ± 1.3 g. For the same compound, the “RBW (%) (End)” value (BEL-7402 xenograft; 6 4.0 mg/kg daily iv) was 117.7±6.3%, the “Tumor volume (End)” value (BEL-7402 xenograft; 6 4.0 mg/kg daily iv) was 648.8±242.1 mm3 and the “TGI (%)” value (BEL-7402 xenograft; 6 4.0 mg/kg daily iv, day 18, by tumor volume) was 32.9%. The “Inhibition of tumor growth (%)” value (BEL-7402 xenograft; 6 4.0 mg/kg daily iv, day 18, by tumor weight) was 29.4%, the “Body weight (start)” value (BEL-7402 xenograft; 6 8.0 mg/kg daily iv) was 20.2 ± 0.7 g and the “Tumor volume (start)” value (BEL-7402 xenograft; 6 8.0 mg/kg daily iv) was 79.4±28.4 mm3. For the same compound, the “Average tumor weight (mean ± SD g)” value (BEL-7402 xenograft; 6 8.0 mg/kg daily iv) was 0.67 ± 0.46 g, the “Body weight (End)” value (BEL-7402 xenograft; 6 8.0 mg/kg daily iv) was 23.4 ± 1.4 g and the “RBW (%) (End)” value (BEL-7402 xenograft; 6 8.0 mg/kg daily iv) was 115.5±4.6%. The “Tumor volume (End)” value (BEL-7402 xenograft; 6 8.0 mg/kg daily iv) was 521.0±319.9 mm3.
